The values that follow come from patent US7276519B2, “Thieno[3,2-b]pyridine-6-carbonitriles and thieno[2,3-b]pyridine-5-carbonitriles as protein kinase inhibitors” (Wyeth, priority 2002, dated 2007).

Values joined by “and” are separate entries in the source; they are usually repeats but may differ in a detail not shown here. Equal values may be shown once.

For data set [1], the system named is BXPC3 cells. The experiment in a line: Cell based screen for inhibitors of Raf and/or Mek kinase, BXPC3. To be noted: Homo sapiens, BXPC-3, 96 h; Table 4; four days incubation, SRB. How it is done:
(§1) Cell Based Screen for Inhibitors of Raf and/or Mek Kinase.
(§2) Cell Lines: Human tumor cell lines LoVo which are known to be growth inhibited by low nM concentrations of a reference standard inhibitor of Ras and human adenocarcinoma cell line CaCo-2, which is known to be growth resistant to the same reference compound.
(§3) Cell Media: RPMI 1640 with 10% Fetal Bovine Serum supplemented with L-glutamine and Pennicilin/Streptomycin. • Compounds: Supplied usually as a 10 mM stock in 100% DMSO. • Normal Saline: 150 mM NaCl • Trichloroacetic Acid (TCA): 50% (w/v) in water • Sulforhodamine B (SRB): 0.4% (w/v) in 1% Acetic Acid • Tris Base: 10 mM in water Methods
(§4) Cells are plated at 2000 cells per well for cell line LoVo, 1,750 cells for cell line BXPC3, 1,000 cells for cell line WM266–4 and 1500 cells for cell line CaCo-2 in 96 well plates. Cells are plated in media (200 μl) and allowed to adhere overnight at 37° C. At 24 hours post plating, compounds are added directly at a volume of 0.5 μl. For the qualitative screen (compounds screened at 25 μM) compound is added directly to cells. For the quantitative screen, compound is first diluted in DMSO to generate concentrations of compound or reference standard of: 1, 5, 10 and 25 μM. It is advisable to make the dilutions in an identical 96 well plate so that compounds can be added using a multichannel micropipettor set at 0.5 μl. The cells are then incubated for four days after which the media is removed using a 12 well manifold by first tipping the plate forward at a 45 degree angle and then inserting the manifold in an upright orientation to prevent the tips of the manifold from disturbing cells at the bottom of the plate. 200 μl of normal saline is then added to each well using an 8 well multichannel pipettor, followed by the careful addition of 50 μl of 50% TCA. The plates are then incubated for 2 hours at 4° C., after which the supernatant is removed using the same technique as above and the plated washed twice with 200 μl water. The plates are then air dried and 50 μl of SRB stock solution is carefully added so that the entire bottom of each well is covered. This again can be used using an 8 well multichannel pipettor. The SRB is incubated with fixed cells for 15 minutes at room temperature after which the SRB is removed with the manifold as described above and the plates washed twice with 350 μl of 1% acetic acid per well each time. The plates are then air dried after which the bound SRB is released from protein by the addition of 200 μl of Tris base. Resolubilizing the SRB is aided by placing the plates on a rotator for 15–30 minutes. The absorbance of each well is determined at 550 or 562 nm using a microtiter plate reader.
(§5) Each compound or dilution thereof is performed in triplicate. Outliers are identified by visual inspection of the data. Each plate should have a “0” control (vehicle only).
(§6) Quantitative Assay: A standard curve is constructed by plotting the concentration of compound against the average absorbance calculated at that concentration. A curve is plotted and the concentration at which the curve passes through the 50% the absorbance mark seen in the “0” control well is the IC50 calculated for that compound. Multiple entries for a given compound indicate that it was tested multiple times.

For data set [2], the target named is T1, Raf-1 (c-Raf) / GST-MEK1 (Raf and/or Mek kinase).
T1 construct: Sf9 insect cell lysate containing full length 6his-tagged recombinant human c-Raf; fused on or other part: 6His tag on c-Raf; GST on MEK1
The experiment in a line: Raf/Mek kinase cascade assay. It is filed as biochemical, human. The note with it: Table 4; read-out: Raf/MEK enzyme IC50. Here is the method:
Raf/Mek Kinase Cascade Assay
(Specific Activity: ˜200 U/ml). Human Non-active Mek-1-GST and human GST-MAP kinase recombinant proteins produced in E. coli).
Stock Solutions Raf/Mek Cascade Assay:
• 1. Assay Dilution Buffer (ADB): 20 mM MOPS, pH 7.2, 25 mM β-glycerol phosphate, 5 mM EGTA, 1 mM sodium orthovanadate, 1 mM dithiothreitol. • 2. Magnesium/ATP Cocktail: 500 μM cold ATP and 75 mM magnesium chloride in ADB. • 3. Active Kinase: Human Active c-Raf: Use at 0.4 U per assay point. • 4. Non-active GST-MEK1: Use at 0.1 μg per assay point. • 5. Non-active GST-p42 MAP Kinase: Use at 1.0 μg per assay point. Stock Solutions ELISA: • 1. TBST—Tris (50 mM, pH 7.5), NaCl (150 mM), Tween-20 (0.05%) • 2. Superblock (Pierce) • 3. Anti-GST Ab (Pharmacia) • 4. Anti-Phospho MAPK (Sigma) • 5. Anti-Mouse Ab/Europium conjugate (Wallac) Assay Procedure: First Stage: c-Raf Dependent Activation of GST-MEK and GST-MAPK • 1. Add […] of ADB per assay (i.e. per well of a 96 well plate) • 2. Add […] of 0.5 mM cold ATP and 75 mM magnesium chloride in ADB. • 3. Add 2 ml of c-Raf (0.4 U/assay), in conjunction with 1.6 ml non-active MEK1 ([…]). • 4. Add 4 ml of non-active GST-p42 MAP Kinase ([…]). • 5. Incubate for 60 minutes at 30° C. in a shaking incubator. • 6. Transfer this mixture to an anti-GST Ab coated 96 well plate (Nunc Immunosorb plates coated o/n with a-GST, then blocked with Pierce Superblock). • 7. Incubate for 60 minutes at 30° C. in a shaking incubator • 8. Wash 3× with TBST, add Anti-Phospho MAPK (Sigma) (1:3000) • 9. Incubate for 60 minutes at 30° C. in a shaking incubator • 10. Wash 3× with TBST, add Anti-Mouse Ab/Europium conjugate (Wallac) (1:500) • 11. Incubate for 60 minutes at 30° C. in a shaking incubator • 12. Wash 3× with TBST, Read plates in Wallac Victor model Plate Reader. • 13. Collect data analyze in Excel for single point and IC50 determinations.
Single point assay—% inhibition at 10 mg/ml (% Inhibition=1—cpd.treated sample/untreated control). IC50 determinations—done on compounds from single point assays with >80% inhibition. Typically, the Raf/Mek assay is run at compound concentrations from 10 μM to 1 nM in half log dilutions. (% inhibition is determined for each compound concentration). Multiple entries for a given compound indicate that it was tested multiple times. The results obtained measure Raf and/or Mek kinase inhibition, and for representative compounds of this invention are listed in Table 4.

Data set [3] deals with WM266-4 cells. The experiment in a line: Cell based screen for inhibitors of Raf and/or Mek kinase, WM266-4. To be noted: Table 4, four days incubation, SRB. Here is the method: as §1, §2, §3, §4, §5, §6
Data set [4] relates to LoVo cells. Put plainly: Cell based screen for inhibitors of Raf and/or Mek kinase, LoVo. Further details: species or system human. To be noted: Table 4, four days incubation, SRB. How it is done: as §1, §2, §3, §4, §5, §6

Broadly, the melting point is the temperature, or range, at which the solid turns liquid. As for `Cn1ccnc1Sc1ccc(Nc2c(C#N)cnc3cc(-c4ccc(CN5CCOCC5)cc4)sc23)cc1Cl` [Example 83, 7-({3-chloro-4-[(1-methyl-1H-imidazol-2-yl)thio]phenyl}amino)-2-[4-(morpholin-4-ylmethyl)phenyl]thieno[3,2-b]pyridine-6-carbonitrile], the melting point lay within 150 to 152 °C. In addition, in data set [1], the IC50 was above 1 µM. Moreover, in data set [2], the IC50 was 0.041 µM. In addition, the IC50 in data set [3] (Homo sapiens, WM 266-4, 96 h) is above 1 µM. The molecule further showed an IC50 in data set [4] (Homo sapiens, LoVo, 96 h) of 0.036 µM. In data set [4], this molecule yielded an IC50 of 0.038 µM.
In turn, `CN1CCN(Cc2ccc(-c3cc4ncc(C#N)c(Nc5ccc(Sc6nccn6C)c(Cl)c5)c4s3)cc2)CC1` [Example 99, 7-({3-chloro-4-[(1-methyl-1H-imidazol-2-yl)thio]phenyl}amino)-2-{4-[(4-methylpiperazin-1-yl)methyl]phenyl}thieno[3,2-b]pyridine-6-carbonitrile] returned a melting point of 221 to 224 °C. In addition, the IC50 in data set [1] is 0.041 µM. For the same molecule, the IC50 in data set [2] came out at 0.0045 µM. The IC50 in data set [3] (Homo sapiens, WM 266-4, 96 h) is above 1 µM. In data set [4] (Homo sapiens, LoVo, 96 h), this molecule displayed an IC50 of 0.039 µM.
For `CCN(CC)Cc1ccc(-c2cc3ncc(C#N)c(Nc4ccc(Sc5nccn5C)c(Cl)c4)c3s2)cc1` [Example 98, 7-({3-chloro-4-[(1-methyl-1H-imidazol-2-yl)thio]phenyl}amino)-2-{4-[(diethylamino)methyl]phenyl}thieno[3,2-b]pyridine-6-carbonitrile] the same measures were 200 to 203 °C, 0.038 µM, 0.0056 µM, 0.04 µM and 0.033 µM.
For `CN(C)CC#Cc1cc2ncc(C#N)c(Nc3ccc(Sc4nccn4C)c(Cl)c3)c2s1` [Example 91, 7-({3-chloro-4-[(1-methyl-1H-imidazol-2-yl)thio]phenyl}amino)-2-[3-(dimethylamino)prop-1-ynyl]thieno[3,2-b]pyridine-6-carbonitrile], the melting point fell in the range of 204 to 207 °C. In addition, in data set [1], the IC50 is 0.092 µM. In addition, the IC50 in data set [2] came out at 0.475 µM. The molecule also registered an IC50 in data set [3] (Homo sapiens, WM 266-4, 96 h) of 0.095 µM. Also, the IC50 in data set [3] is 0.085 µM. In data set [4] (Homo sapiens, LoVo, 96 h), this molecule showed an IC50 of 0.064 µM.
In turn, `Cn1ccnc1Sc1ccc(Nc2c(C#N)cnc3cc(C#CCCN4CCOCC4)sc23)cc1Cl` [Example 86] had a melting point of 195 to 200 °C. Moreover, the IC50 in data set [1] was determined as 0.35 µM. In addition, the IC50 in data set [2] was 0.221 µM and 0.332 µM. The same molecule had an IC50 in data set [3] (Homo sapiens, WM 266-4, 96 h) of 0.35 µM. Further, in data set [4] (Homo sapiens, LoVo, 96 h), the IC50 was determined as 0.094 µM. This molecule also registered an IC50 in data set [4] of 0.16 µM.
As for `CCN(CC)CC#Cc1cc2ncc(C#N)c(Nc3ccc(Sc4nccn4C)c(Cl)c3)c2s1` [Example 118, 7-({3-chloro-4-[(1-methyl-1H-imidazol-2-yl)thio]phenyl}amino)-2-[3-(diethylamino)prop-1-ynyl]thieno[3,2-b]pyridine-6-carbonitrile], the melting point was 190 to 194 °C. Besides, the IC50 in data set [1] worked out at 0.071 µM. This molecule also gave an IC50 in data set [4] (Homo sapiens, LoVo, 96 h) of 0.073 µM.
